Where two headings read alike, the source gives them in different places.
How the values were obtained:
prostate cancer cells = settings: androgen-dependent and androgen-independent prostate cancer cells; cited from earlier work
LNCaP cells [1] = test: HPLC quantitation of polyamine and acetyl polyamine levels in LNCaP cells; assay type: cell-based, human; settings: R1881 1 nM, 96 h
Source text: This method is routinely used in the analytical laboratory of the core facility of Cancer Centers and was accessible for quantitative assays necessary for the PK/PD determinations. […] Each data point was an average of two determinations where sample cell pellets were collected from three independent experiments.

LNCaP cells [2] = test: DCF dye oxidation assay of androgen (R1881) induced ROS production; assay type: cell-based, human; settings: cells (si22) transfected with vector transcribing siRNA against SSAT
Description: SSAT induction is a major source of androgen induced oxidative stress. In order to confirm that SSAT was the major source of androgen induced oxidative stress, we developed and used a stable LNCaP cell clone transfected with plasmid transcribing siRNA designed to silence SSAT mRNA expression. The SSAT mRNA level in these cells was determined by qRT-PCR method. In the cells transfected only with the vector, the SSAT mRNA level increased by over 8-fold after 96 h treatment with R1881, whereas in cells stably transfected with SSAT siRNA (si22), R1881 under similar treatment condition induced less than 2-fold increase in the SSAT transcript, showing over 75% silencing of SSAT mRNA expression. The ROS production induced by androgen analog R1881 in these cells was measured by DCF dye oxidation assay. The green fluorescence of oxidized DCF in androgen treated LNCaP cells was shown. The effect of SSAT silencing on the R1881 induced ROS production measured by DCF assay was also shown. The ratio of DCF fluorescence (green):DNA fluorescence (blue) for each of the treated well of a 96 well plate normalized to that of the average of control untreated wells represents the ROS level per cell relative to that in control untreated cells. The data points are the mean of numbers obtained from repeat experiments using thirty identically treated wells.
Each data point was an average of readings from six wells repeated twice in triplicates. […] The ROS levels of all CPC-200 pretreated cells were normalized to the ROS levels of cells treated with CPC-200 alone.

Androgen Receptor (AR) = Androgen Receptor (AR) (Homo sapiens, UniProt P10275, T878A); settings: LNCaP cells; for fluorescence score, geometric mean / fluorescence score, mean after logarithmic transformation: 40 cells
Description: The quantitation of subcellular fluorescence was further validated using a known system—nuclear translocation of AR in LNCaP cells treated with androgen (dihydrotestosterone) or androgen analog metribolone. […] LNCaP cells in charcoal stripped androgen depleted medium are grown for 6 days in the presence of low (0.05 nM) metribolone and 4 more days in the presence of high (1 nM) metribolone. […] For objective analysis of the response, a quantitation of the IHC fluorescence is necessary. The Bioimager was used to quantitate the IHC fluorescence of AR in the nuclei and in the cytoplasm of about 40 cells from four random areas of the microscopic field from each plate.

SSAT = SSAT mRNA level by qRT-PCR in LNCaP cells; assay type: cell-based, human
Description: Each data point was an average of readings from six identically treated LNCaP prostate cancer cell sample wells with readings repeated twice in triplicate sets.
In order to confirm that SSAT was the major source of androgen induced oxidative stress, we developed and used a stable LNCaP cell clone transfected with plasmid transcribing siRNA designed to silence SSAT mRNA expression. The SSAT mRNA level in these cells was determined by qRT-PCR method. […] The ratio of DCF fluorescence (green):DNA fluorescence (blue) for each of the treated well of a 96 well plate normalized to that of the average of control untreated wells represents the ROS level per cell relative to that in control untreated cells. The data points are the mean of numbers obtained from repeat experiments using thirty identically treated wells.

[3] = system: SSAT (spermidine/spermine acetyl transferase) gene; test: DNA microarray analysis of gene expression (Affymetrix Gene chip Array) in LNCaP cells; assay type: cell-based, human; settings: 1 nM R1881, 96 h vs untreated
Description: SSAT induction is a mechanism of ROS production in CaP cells. In our search for the biochemical mechanism and convenient diagnostic monitoring of androgen-induced ROS production in prostate cells, a DNA microarray analysis of gene expression was also performed using the Affymetrix Gene chip Array We used untreated androgen dependent LNCaP cells and cells treated with 1 nM androgen […] (a well-accepted androgen analog routinely used due to its stability) for 96 h for these studies. […] We noted with considerable interest that among the list of genes that are overexpressed by more than an order of magnitude after androgen-treatment, SSAT is the only enzyme that is directly related to a ROS-generating biochemical pathway.

[4] = system: LNCaP human prostate cancer cells; settings: 1 nM metribolone, 96 h; cited from earlier work
[5] = system: LNCaP human prostate cancer cells; test: DCFH dye oxidation kinetics (ROS, v0) in nuclei and cytoplasm of LNCaP cells; assay type: cell-based; settings: metribolone treatment over 24-96 h
Description: Standardization of cell-based fluorescence quantitation assay. We standardized the BD Pathway Bioimager quantitation of cellular ROS using a well-established cell culture based system. […] The ROS levels in these published studies were determined by monitoring DCFH dye oxidation, where DCFH is oxidized to DCF by ROS to yield quantifiable green fluorescence. The DCF fluorescence in live cell cytoplasm and nuclei (FIG. 2B) were quantitated by using the Hoechst 33342 dye staining of the cell nuclei (blue fluorescence in FIG. 2) that allows for auto focusing, positioning and mapping the contour of the cell nuclei and cytoplasms.
(1) Kinetics of DCF dye oxidation: Oxidation of DCFH to fluorescence DCF dye is a relatively fast reaction that is usually complete within 30-60 minutes. […] Curve fitting of the first 20-30 min of the plot of DCF fluorescence intensity vs. time with a pseudo-first order reaction kinetics yields the initial velocity (v0) values of the reaction (see below), which is directly proportional to the ROS concentration at the time point of DCF dye addition.
(1) Real-time kinetics of DCF dye oxidation in cell nuclei and cytoplasm: DCF dye oxidation kinetics in the nuclei and cytoplasm of LNCaP cells were determined using the BD Bioimager software coupled with Sigmaplot curve-fitting program. […]

Sequence of Androgen Receptor (AR) (P10275 whole entry T878A): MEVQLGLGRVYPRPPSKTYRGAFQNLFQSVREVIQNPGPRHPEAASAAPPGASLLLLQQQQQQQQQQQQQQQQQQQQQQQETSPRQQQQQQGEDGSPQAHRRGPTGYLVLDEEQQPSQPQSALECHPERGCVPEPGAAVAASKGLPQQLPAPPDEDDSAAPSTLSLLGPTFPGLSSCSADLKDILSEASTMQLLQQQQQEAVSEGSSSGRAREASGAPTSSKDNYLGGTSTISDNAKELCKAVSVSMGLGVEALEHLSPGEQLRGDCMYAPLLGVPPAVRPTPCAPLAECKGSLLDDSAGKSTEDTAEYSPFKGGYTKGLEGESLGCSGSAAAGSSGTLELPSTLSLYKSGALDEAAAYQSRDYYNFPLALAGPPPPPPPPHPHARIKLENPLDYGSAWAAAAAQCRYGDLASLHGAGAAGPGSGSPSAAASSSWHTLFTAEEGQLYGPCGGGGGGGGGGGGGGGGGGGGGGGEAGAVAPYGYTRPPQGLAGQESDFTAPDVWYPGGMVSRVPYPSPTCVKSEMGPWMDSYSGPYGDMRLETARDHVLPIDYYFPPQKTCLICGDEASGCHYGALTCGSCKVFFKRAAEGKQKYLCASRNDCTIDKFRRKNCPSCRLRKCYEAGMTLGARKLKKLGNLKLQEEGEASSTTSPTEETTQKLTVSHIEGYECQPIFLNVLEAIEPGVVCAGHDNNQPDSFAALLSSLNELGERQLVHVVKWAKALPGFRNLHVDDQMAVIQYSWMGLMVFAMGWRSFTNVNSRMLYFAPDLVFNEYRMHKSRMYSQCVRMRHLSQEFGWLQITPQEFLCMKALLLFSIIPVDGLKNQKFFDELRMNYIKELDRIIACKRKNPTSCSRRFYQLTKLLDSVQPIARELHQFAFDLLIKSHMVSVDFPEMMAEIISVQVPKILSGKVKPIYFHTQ

SMILES | activities against prostate cancer cells (prostate cancer cells) | putrescine, spermidine, N-acetyl spermidine and N-acetyl spermine levels (LNCaP cells [1]) | spermine level (LNCaP cells [1]) | R1881 induced ROS levels (LNCaP cells [2]) | fluorescence score, geometric mean (Androgen Receptor (AR); 0.05 nM metribolone (control)) | fluorescence score, mean after logarithmic transformation (Androgen Receptor (AR); 0.05 nM metribolone (control)) | increase in the ratio of nuclear fluorescence intensities over the cytoplasmic intensities (AR IHC) (Androgen Receptor (AR); 1 nM metribolone compared to 0.05 nM metribolone) [fold] | fluorescence score, geometric mean (Androgen Receptor (AR); 1 nM metribolone) | fluorescence score, mean after logarithmic transformation (Androgen Receptor (AR); 1 nM metribolone) | cells responding dramatically (nuclear localization of AR) (Androgen Receptor (AR); high (1 nM) metribolone) [%] | increase in the SSAT transcript (SSAT; LNCaP cells stably transfected with SSAT siRNA (si22), 96 h R1881) | increase in SSAT mRNA level (SSAT; LNCaP cells transfected only with the vector, 96 h R1881) | SSAT over-expression, dependence on R1881 concentration (SSAT; LNCaP cells, 1 nM vs 0.05 nM R1881) | increase in SSAT mRNA level (SSAT; R1881 treated LNCaP cells vs untreated control cells) [fold] | SSAT gene expression (microarray) [3] | ROS production (DCFH dye oxidation) [4] | nuclear and cytoplasmic ROS levels (v0 of DCFH dye oxidation) [5]
Cc1c(C)c2c(c(C)c1O)CCC(C)(C)O2 [PMCoI, 2,2,5,7,8 pentamethyl 6-chromanol] | considerable cytotoxic, anti-proliferative and also anti-androgenic activities | – | – | – | – | – | – | – | – | – | – | – | – | – | – | – | –
C[C@]1(O)CC[C@H]2[C@@H]3CCC4=CC(=O)CCC4=C3C=C[C@@]21C [metribolone, 17β-17-Hydroxy-17-methyl-estra-4,9,11-trien-3-one] | – | increased | markedly decreased spermine level | only a minor increase in ROS levels | 329 | 5.80 | 1.5 | 605 | 6.41 | 20 | less than 2 fold | over 8 fold | over-expressed only in cells treated with 1 nM R1881 | > 30 | highly overexpressed gene | high levels of ROS | increase over time

Source: patent US20110091931A1, “Methods and Kits for Determining Oxygen Free Radical (OFR) Levels in Animal and Human Tissues as a Prognostic Marker for Cancer and Other Pathophysiologies” (COLBY PHARMACEUTICAL COMPANY, priority 2009, published 2011)
